Experimental data from the supplement of paper PMC4932681.
Where a name gives a salt, the structure may show the parent alone.

What was measured:
Assay in all cases: viability inhibition at highest dose (% inhibition); higher = more growth inhibition
[1] = system: BT-474 Tam1; conditions: 4-OH-tamoxifen in medium 1 µM; 72 h
Experimental: (§1)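 Percent inhibition of viability (CellTiter-Glo, 72 h) at the highest tested concentration (D5), normalised to DMSO (0%) and 100 µM benzethonium chloride (100%). Resistant lines and the 'in 1µM tamoxifen' arms were tested in 1 µM 4-OH-tamoxifen.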

[2] = system: T-47D; conditions: 72 h
Experimental: as §1

[3] = system: MCF-7; conditions: 72 h
Experimental: as §1

[4] = system: MCF-7 Tam1; conditions: 4-OH-tamoxifen in medium 1 µM; 72 h
Experimental: as §1

[5] = system: BT-474 Tam2; conditions: 4-OH-tamoxifen in medium 1 µM; 72 h
Experimental: as §1

[6] = system: ZR-75-1; conditions: 72 h
Experimental: as §1

[7] = system: T-47D Tam2; conditions: 4-OH-tamoxifen in medium 1 µM; 72 h
Experimental: as §1

[8] = system: ZR-75-1 Tam1; conditions: 4-OH-tamoxifen in medium 1 µM; 72 h
Experimental: as §1

[9] = system: ZR-75-1 Tam2; conditions: 4-OH-tamoxifen in medium 1 µM; 72 h
Experimental: as §1

[10] = system: T-47D Tam1; conditions: 4-OH-tamoxifen in medium 1 µM; 72 h
Experimental: as §1

[11] = system: BT-474; conditions: 72 h
Experimental: as §1

Row | Structure (SMILES) | viability inhibition at highest dose [1] | viability inhibition at highest dose ([2]; 4-OH-tamoxifen in medium 0 µM) | viability inhibition at highest dose ([2]; 4-OH-tamoxifen in medium 1 µM) | viability inhibition at highest dose ([3]; 4-OH-tamoxifen in medium 0 µM) | viability inhibition at highest dose ([3]; 4-OH-tamoxifen in medium 1 µM) | viability inhibition at highest dose [4] | viability inhibition at highest dose [5] | viability inhibition at highest dose ([6]; 4-OH-tamoxifen in medium 0 µM) | viability inhibition at highest dose ([6]; 4-OH-tamoxifen in medium 1 µM) | viability inhibition at highest dose [7] | viability inhibition at highest dose [8] | viability inhibition at highest dose [9] | viability inhibition at highest dose [10] | viability inhibition at highest dose ([11]; 4-OH-tamoxifen in medium 0 µM) | viability inhibition at highest dose ([11]; 4-OH-tamoxifen in medium 1 µM)
1 | Cc1ccc(NC(=O)c2ccc(CN3CCN(C)CC3)cc2)cc1Nc1nccc(-c2cccnc2)n1 [Imatinib] (drug 10000 nM) | 49.1 | 10.4 | 5.9 | -13.1 | 11.1 | 4.63 | 27.2 | 0.33 | 17.8 | 20.5 | 7.91 | 8.38 | 3.96 | -0.39 | 23.3
2 | CC(C)Cn1cnc2c(N)nc3ccccc3c21 [Imiquimod] (drug 10000 nM) | 8.22 | 16.1 | 10.4 | -14.1 | 15.9 | 5.29 | 11.8 | 0.432 | 2.78 | 15.3 | -4.93 | -8.03 | 8.8 | 9.75 | 18.4
3 | O=C(Nc1ccncc1)C(=O)c1cn(Cc2ccc(Cl)cc2)c2ccccc12 [Indibulin] (drug 10000 nM) | 7.16 | 2.62 | 12 | 36.4 | 33.7 | -9.03 | 8.07 | 9.44 | -3.66 | 4.46 | 10.6 | 11.1 | 13 | 7.67 | 28.2
4 | CCc1c2c(nc3ccc(OC(=O)N4CCC(N5CCCCC5)CC4)cc13)-c1cc3c(c(=O)n1C2)COC(=O)[C@]3(O)CC [Irinotecan] (drug 10000 nM) | -9.22 | 42.8 | -0.292 | 23.7 | 23.7 | -8.36 | -11 | 41.6 | 30 | 23.3 | 35 | 44.3 | 34.4 | -20.2 | -25.4
5 | C/C(=C\c1csc(C)n1)[C@@H]1C[C@@H]2O[C@]2(C)CCC[C@H](C)[C@H](O)[C@@H](C)C(=O)C(C)(C)[C@@H](O)CC(=O)N1 [Ixabepilone] (drug 1000 nM) | 4.12 | 45.1 | 23 | 33.8 | 26.2 | -16.3 | -14.8 | -11.9 | -5.49 | 33.3 | -3.74 | -5.09 | 30 | -8.54 | 41
6 | O=C(Cc1ccc(-c2ccc(OCCN3CCOCC3)cc2)cn1)NCc1ccccc1 [KX2-391] (drug 10000 nM) | 92.7 | 24.2 | 25.3 | 44.4 | 55.3 | 16.8 | 92.2 | 41.1 | 38.6 | 47.3 | 43.1 | 47.8 | 74.1 | 41 | 82.9
7 | CS(=O)(=O)CCNCc1ccc(-c2ccc3ncnc(Nc4ccc(OCc5cccc(F)c5)c(Cl)c4)c3c2)o1 [Lapatinib] (drug 1000 nM) | 96.8 | 5.41 | -0.526 | 6.77 | 17.5 | 0.111 | 96.2 | 0.392 | -2.73 | 16.8 | 5.35 | -5.73 | 14.6 | 76.6 | 95.8
8 | Oc1ccc2c(c1)CC[C@H](c1ccccc1)[C@@H]2c1ccc(OCCN2CCCC2)cc1 [Lasofoxifene] (drug 1000 nM) | 34.3 | -21.7 | -10.6 | 3.8 | 25 | -2.47 | 12.4 | -9.97 | -2.22 | 5.06 | 3.54 | 2.17 | 2.67 | -9.14 | 24.2
9 | Nc1cccc2c1CN(C1CCC(=O)NC1=O)C2=O (stereo not given) [Lenalidomide] (drug 10000 nM) | 5.58 | -20.4 | -6.19 | -4.99 | 29.1 | -1.73 | 2.75 | -8.43 | -6.55 | -4.53 | 2.97 | -0.811 | -2.5 | -5.28 | -16.5
10 | C[C@]12O[C@H](C[C@]1(O)CO)n1c3ccccc3c3c4c(c5c6ccccc6n2c5c31)CNC4=O [Lestaurtinib] (drug 1000 nM) | 46.3 | -13.3 | 19.6 | 21.4 | 9.26 | 21.2 | 24.5 | 8.87 | 8.3 | -5.08 | 1.32 | 12.4 | -16.2 | 10.1 | 42.1
11 | N#Cc1ccc(C(c2ccc(C#N)cc2)n2cncn2)cc1 [Letrozole] (drug 10000 nM) | -6.74 | -9.48 | 0.428 | -10.7 | -14.2 | -6.5 | -3.68 | -2.82 | -9.49 | 6.57 | -0.517 | -2.74 | -0.0184 | -5.7 | -8.86
12 | c1ccc([C@H]2CN3CCSC3=N2)cc1 [Levamisole, (Tetramisole hydrochloride)] (drug 10000 nM) | -1.57 | 1.99 | -2.51 | -9.38 | 1.67 | -9.5 | 4.72 | 1.62 | 3.25 | 3.27 | -0.419 | 4.7 | -4.38 | -0.587 | -3.62
13 | Cc1ccc(F)c(NC(=O)Nc2ccc(-c3cccc4[nH]nc(N)c34)cc2)c1 [Linifanib (ABT-869)] (drug 1000 nM) | -15 | -7.82 | -2.26 | -7.63 | 4.89 | -5.44 | -11.2 | -3.03 | -10.3 | -13.7 | -5.49 | -0.131 | 5.32 | -5.83 | -19
14 | C[C@]1(O)C[C@@H](c2nc(-c3ccc4ccc(-c5ccccc5)nc4c3)c3c(N)nccn32)C1 [Linsitinib (OSI-906)] (drug 10000 nM) | 3.26 | 28.3 | 33.2 | 52.5 | 62.4 | 38.1 | 7.88 | 14.6 | 20.1 | 29 | 12.2 | 16.3 | 84.2 | -2.14 | 21.6
15 | O=NN(CCCl)C(=O)NC1CCCCC1 [Lomustine] (drug 10000 nM) | 0.268 | -10.8 | -1.44 | 12.6 | 13.1 | -10.9 | -2.72 | -11.7 | -5.51 | 7.26 | -0.686 | -14.9 | -5.12 | -2.85 | 4.76
16 | Cn1cnc2c(F)c(Nc3ccc(Br)cc3F)c(C(=O)NOCCO)cc21 [MEK-162 (ARRY-162)] (drug 1000 nM) | 2.68 | -6.66 | -10.7 | 12.2 | 20.8 | 10.4 | -1.22 | -6.09 | -7.06 | 14.1 | -1.39 | 7.88 | 17.2 | -13.3 | 6.81
17 | O=C(O)CC[C@H]1CC[C@@](c2cc(F)ccc2F)(S(=O)(=O)c2ccc(Cl)cc2)CC1 [MK-0752] (drug 1000 nM) | -7.32 | -16.2 | -1.71 | -24.6 | 1.59 | -0.531 | 2.64 | -11.9 | -13.3 | 4.08 | -3.02 | -2.73 | 2.67 | -9.96 | -12.2
18 | C=CCn1c(=O)c2cnc(Nc3ccc(N4CCN(C)CC4)cc3)nc2n1-c1cccc(C(C)(C)O)n1 [MK-1775] (drug 10000 nM) | 40.9 | 22.4 | 16.9 | 51.7 | 35.9 | 6.3 | 30.6 | 21.9 | 14.6 | 38.8 | 1.62 | 1.58 | 39.6 | 25 | 44
19 | NC1(c2ccc(-c3nc4ccn5c(=O)[nH]nc5c4cc3-c3ccccc3)cc2)CCC1 [MK-2206] (drug 1000 nM) | 47 | 52.4 | 36.6 | 35.1 | 44.8 | 29.1 | 21.9 | 57.1 | 51.6 | 49.9 | 60.8 | 63.1 | 44.5 | 27.6 | 50.8
20 | NC(=O)c1cccc2cn(-c3ccc([C@@H]4CCCNC4)cc3)nc12 [MK-4827] (drug 10000 nM) | 42.3 | 20.9 | -1.38 | 12.1 | 16.4 | -3.14 | 21.1 | 11.6 | 8.9 | 14.2 | 2.04 | 9.71 | 1.65 | -13.3 | -7.59
21 | Cc1ccc(NC(=O)c2ccc(CN3CCN(C)CC3)cc2)cc1Nc1nc(-c2cccnc2)cs1 [Masitinib] (drug 10000 nM) | 93.1 | 42 | 57.1 | 39.5 | 40.7 | 26.5 | 87 | 9.35 | 20.3 | 40.7 | 18.2 | 32.8 | 34.5 | 21.2 | 71.6
22 | S=c1[nH]cnc2nc[nH]c12 [Mercaptopurine] (drug 10000 nM) | 3.48 | 3.17 | -0.759 | 18.1 | 27.8 | 11.9 | 6.87 | 39.5 | 6.71 | 12.1 | 35.5 | 18 | 11.9 | 3.7 | 13.8
23 | CN(Cc1cnc2nc(N)nc(N)c2n1)c1ccc(C(=O)N[C@@H](CCC(=O)O)C(=O)O)cc1 [Methotrexate] (drug 10000 nM) | -17.3 | -7.44 | -4.13 | 18.8 | 29.1 | 14.2 | 2.17 | 22.8 | 2.09 | 6.27 | 15.9 | 10.5 | -0.232 | -11.3 | -21.2
